Data published in ChEMBL document CHEMBL5512633, “Hit-to-lead optimization of 2-aminoquinazolines as anti-microbial agents against Leishmania donovani” (Eur J Med Chem, 2024).
The source made the active and inactive calls. The calls are words filed in the database; no cut-off is given here.

How the values were obtained:
[1] = Cytotoxicity against human THP-1 cells incubated for 72 hrs by DAPI staining based analysis; type: toxicity, cell-based
Leishmania donovani [2] = assay: Antileishmanial activity against Leishmania donovani MHOM/IN/1983/AG83 axenic amastigotes assessed as inhibition of growth incubated for 48 hrs by flow cytometric analysis; type: functional, organism-based; settings: MHOM/IN/1983/AG83, 48 h
[3] = Lipophilicity, logD of compound in 1-octanol and phosphate buffer at pH 7.4 by HPLC-UV analysis; type: physicochemical; settings: 1-octanol/phosphate buffer
Leishmania donovani [4] = assay: Antileishmanial activity against Leishmania donovani MHOM/IN/1983/AG83 axenic amastigotes assessed as inhibition of growth at 30 uM incubated for 48 hrs by flow cytometric analysis relative to control; type: functional
[5] = Metabolic stability in mouse liver microsomes assessed as half-life preincubated for 10 mins and measured after 60 mins by LC-MS/MS analysis; type: ADME, Microsome
[6] = Metabolic stability in human liver microsomes assessed as half-life preincubated for 10 mins and measured after 60 mins by LC-MS/MS analysis; type: ADME, Microsome
[7] = Stability in human plasma assessed as compound remaining measured after 2 hrs by LC-MS/MS analysis; type: ADME, cell-free; settings: read-out: Stability
[8] = Metabolic stability in human liver microsomes assessed as hepatic blood flow preincubated for 10 mins and measured after 60 mins by LC-MS/MS analysis; type: ADME, Microsome; settings: read-out: QH
[9] = Metabolic stability in mouse liver microsomes assessed as hepatic blood flow preincubated for 10 mins and measured after 60 mins by LC-MS/MS analysis; type: ADME, Microsome; settings: read-out: QH
[10] = Stability in mouse plasma assessed as compound remaining measured after 2 hrs by LC-MS/MS analysis; type: ADME, cell-free; settings: read-out: Stability
[11] = Cytotoxicity against human HepG2 cells incubated for 48 hrs by PI staining based flow cytometric analysis; type: toxicity, cell-based
[12] = Selectivity index, ratio of CC50 for cytotoxicity against human HepG2 cells to IC50 for antileishmanial activity against Leishmania donovani MHOM/IN/1983/AG83 axenic amastigotes; type: toxicity, cell-based; settings: read-out: Ratio CC50/IC50
Leishmania donovani [13] = assay: Antileishmanial activity against Leishmania donovani; type: functional, organism-based

Row | logD [3] | remaining at 2 h [7] [%] | remaining at 2 h [10] [%] | Structure (SMILES) | CC50 at 72 h [1] [µM] | IC50 (Leishmania donovani [2]) [µM] | further results
1 | – | – | – | COc1cc2c(N3CCCCC3)nc(NCc3ccccc3)nc2cc1O | 30.2 | 11.3 | –
2 | – | – | – | COc1cc2c(N3CCCCC3)nc(NCc3ccccc3)nc2cc1OCc1ccccc1 | > 100 | 9.54 | –
3 | – | – | – | CCCCc1ccc(CNc2nc(N3CCCCC3)c3cc(OC)c(OC4CCCC4)cc3n2)cc1 | 5.69 | – | inhibition at 30 µM (Leishmania donovani [4]): ~17%
4 | 2.94 | 97.5 | 88.1 | COc1cc2c(N3CCCCC3)nc(NCc3ccc(C(F)(F)F)cc3)nc2cc1OC1CCCC1 | 28.1 | 17.9 | half-life [5]: 20.3 min; half-life [6]: 38.9 min; hepatic extraction ratio at 1 h [8]: 0.455; hepatic extraction ratio at 1 h [9]: 0.484
5 | – | – | – | COc1cc2c(N(C)C)nc(NCc3ccc(Br)cc3)nc2cc1O | – | 4.78 | –
6 | 3.34 | 46 | 99.3 | COc1cc2c(N3CCCCC3)nc(NCC3CCCCC3)nc2cc1OC1CCCC1 | 6.97 | 4.36 | half-life [5]: 16.3 min; half-life [6]: 22.2 min; hepatic extraction ratio at 1 h [8]: 0.747; hepatic extraction ratio at 1 h [9]: 0.699
7 | – | – | – | COc1cc2c(N3CCCCC3)nc(N)nc2cc1O | 22.2 | – | inhibition at 30 µM (Leishmania donovani [4]): ~13.6%
8 | 2.37 | 99 | 99.1 | COc1cc2c(N3CCCCC3)nc(NCc3ccc(F)cc3)nc2cc1OC1CCNC1 (configuration not stated) | 6.3 | 4.66 | half-life [5]: 52.1 min; CC50 at 48 h [11]: 10.1 µM; half-life [6]: > 120 min; hepatic extraction ratio at 1 h [8]: 0.21; hepatic extraction ratio at 1 h [9]: 0.42; selectivity ratio [12]: 2.18
9 | – | – | – | COc1cc2c(N3CCCCC3)nc(NC3CCCCC3)nc2cc1OC1CCCC1 | 10.2 | 3.28 | –
10 | – | – | – | COc1ccc(-c2cnc(NC(=O)c3cc(-c4ccccn4)n[nH]3)n2C)cc1 | – | – | IC50 (Leishmania donovani [13]): 1 µM
11 | 2.22 | 73.2 | 88.9 | CNc1nc(NCc2ccc(F)cc2)nc2cc(OC3CCCC3)c(OC)cc12 | 2.29 | 1.55 | half-life [5]: 9.1 min; half-life [6]: 11.4 min; hepatic extraction ratio at 1 h [8]: 0.738; hepatic extraction ratio at 1 h [9]: 0.674
12 | 2.46 | 81.2 | 91.6 | COc1cc2c(N(C)C)nc(NCc3ccc(F)cc3)nc2cc1OC1CCCC1 | 3.79 | 5.67 | half-life [5]: 6.9 min; half-life [6]: 8.1 min; hepatic extraction ratio at 1 h [8]: 0.799; hepatic extraction ratio at 1 h [9]: 0.733
13 | – | – | – | COc1cc2c(N3CCCCC3)nc(NS(C)(=O)=O)nc2cc1OC1CCCC1 | 57.9 | – | inhibition at 30 µM (Leishmania donovani [4]): ~5.1%
14 | 3.14 | 103 | 92.2 | COc1cc2c(N3CCCCC3)nc(NCc3ccc(Cl)cc3)nc2cc1OC1CCCC1 | 12.2 | 8.13 | half-life [5]: 17.5 min; half-life [6]: 19.1 min; hepatic extraction ratio at 1 h [8]: 0.627; hepatic extraction ratio at 1 h [9]: 0.519
15 | 2.42 | 77.5 | 97.4 | Clc1ccc(CNc2nc(N3CCCCC3)c3cc4c(cc3n2)OCO4)cc1 | 13.8 | 13.5 | half-life [5]: 10.8 min; half-life [6]: 16 min; hepatic extraction ratio at 1 h [8]: 0.668; hepatic extraction ratio at 1 h [9]: 0.637
16 | – | – | – | COc1cc2c(N3CCCCC3)nc(NCc3ccc(C)cc3)nc2cc1OC1CCCC1 | 3.49 | 5.32 | –
17 | 2.59 | 93.7 | 88.7 | COc1cc2c(N3CCCCC3)nc(NCc3ccccc3)nc2cc1OC1CCCC1 | 4.13 | 7.49 | half-life [5]: 19.2 min; half-life [6]: 20.8 min; hepatic extraction ratio at 1 h [8]: 0.607; hepatic extraction ratio at 1 h [9]: 0.496
18 | – | – | – | COc1cc2nc(NCc3ccc(F)cc3)nc(N3CCCCC3)c2cc1OC | 11.1 | 13.7 | –
19 | 3.22 | 59.3 | 95.6 | COc1cc2c(N3CCOCC3)nc(NCc3ccc(F)cc3)nc2cc1OC1CCCC1 | > 50 | 12 | half-life [5]: 6.9 min; half-life [6]: 6 min; hepatic extraction ratio at 1 h [8]: 0.843; hepatic extraction ratio at 1 h [9]: 0.732
20 | – | – | – | COc1cc2c(N3CCCCC3)nc(NCc3ccc(F)cc3)nc2cc1O | 28.2 | 12.2 | –
21 | – | – | – | Cc1cc(N2CCc3ccccc3C2)nc(Nc2ccc(S(=O)(=O)N3CCOCC3)cc2)n1 | – | – | IC50 (Leishmania donovani [13]): 5 µM
22 | – | – | – | COc1ccc(CNc2nc(N3CCCCC3)c3cc(OC)c(OC4CCCC4)cc3n2)cc1 | 4.56 | 16.6 | –
23 | – | – | – | O=C1CN(C(=O)c2cccc(Nc3ncc(-c4ccc5c(c4)OCO5)cn3)c2)CCN1 | – | – | IC50 (Leishmania donovani [13]): 5 µM

Row | logD [3] | remaining at 2 h [7] [%] | remaining at 2 h [10] [%] | Structure (SMILES) | CC50 at 72 h [1] [µM] | IC50 (Leishmania donovani [2]) [µM] | further results
24 | 2.74 | 83.8 | 80.1 | COc1cc2c(N3CCCCC3)nc(N(C)C)nc2cc1OC1CCCC1 | 74.3 | 6.85 | half-life [5]: 13.7 min; CC50 at 48 h [11]: 66.1 µM; half-life [6]: 39 min; hepatic extraction ratio at 1 h [8]: 0.452; hepatic extraction ratio at 1 h [9]: 0.579; selectivity ratio [12]: 9.65
25 | – | – | – | COc1cc2c(N3CCCCC3)nc(N)nc2cc1OC1CCCC1 | > 100 | 19.4 | –
26 | 2.39 | 70.2 | 106 | COc1ccc(CNc2nc(N3CCCCC3)c3cc(OC)c(OCc4ccccc4)cc3n2)cc1 | 19.5 | 10.3 | half-life [5]: 15.5 min; half-life [6]: 32.2 min; hepatic extraction ratio at 1 h [8]: 0.499; hepatic extraction ratio at 1 h [9]: 0.548
27 | – | – | – | COc1cc2c(N3CCCCC3)nc(NCc3ccc(F)cc3)nc2cc1OCc1ccccc1 | 26.9 | 10.5 | –
28 | – | – | – | COc1ccc(CNc2nc(N3CCCCC3)c3cc(OC)c(O)cc3n2)cc1 | > 50 | 12.3 | –
29 | 2.6 | 96.2 | 92.6 | COc1cc2c(N3CCCCC3)nc(NCc3ccc(Br)cc3)nc2cc1OC1CCCC1 | 15.2 | 2.57 | half-life [5]: 46.5 min; CC50 at 48 h [11]: 28.1 µM; half-life [6]: 83.4 min; hepatic extraction ratio at 1 h [8]: 0.281; hepatic extraction ratio at 1 h [9]: 0.288; selectivity ratio [12]: 10.9
30 | – | – | – | COc1cc2c(N3CCCCC3)nc(N(C)Cc3ccc(Br)cc3)nc2cc1OC1CCCC1 | 34.4 | 54 | –
31 | – | – | – | COc1cc2c(N3CCCCC3)nc(N(C)C)nc2cc1O | 73.4 | – | inhibition at 30 µM (Leishmania donovani [4]): ~18.8%
32 | – | – | – | COc1cc2c(N3CCCCC3)nc(NS(C)(=O)=O)nc2cc1O | > 100 | – | inhibition at 30 µM (Leishmania donovani [4]): ~3.25%
33 | 2.64 | 105 | 96.9 | COc1cc2c(N3CCCCC3)nc(NCc3ccc(F)cc3)nc2cc1OC1CCCC1 | 46.5 | 10.2 | half-life [5]: 13 min; half-life [6]: 12.4 min; hepatic extraction ratio at 1 h [8]: 0.722; hepatic extraction ratio at 1 h [9]: 0.592
34 | – | – | – | COc1cc2c(N3CCCCC3)nc(N)nc2cc1OCc1ccccc1 | 15.4 | 12 | –
35 | – | – | – | COc1cc2c(N3CCCCC3)nc(NCc3ccc([N+](=O)[O-])cc3)nc2cc1OC1CCCC1 | 5.68 | 9.63 | –
36 | – | – | – | COc1cc2c(N3CCCCC3)nc(NCc3ccc(C(F)(F)F)cc3)nc2cc1O | 27.1 | 8.91 | –
37 | – | – | – | COc1cc2c(N3CCCCC3)nc(NC(=O)c3ccc(C(F)(F)F)cc3)nc2cc1OC1CCCC1 | 79 | – | inhibition at 30 µM (Leishmania donovani [4]): ~34.5%
38 | – | – | – | COc1cc2c(N3CCCCC3)nc(NS(C)(=O)=O)nc2cc1OCc1ccccc1 | > 50 | – | inhibition at 30 µM (Leishmania donovani [4]): ~5.5%
39 | – | – | – | CCCCCCCCCCCCCCCCOP(=O)([O-])OCC[N+](C)(C)C [MILTEFOSINE] | 25 | 5.37 | CC50 at 48 h [11]: 51.6 µM; selectivity ratio [12]: 9.38
40 | – | – | – | COc1cc2c(N3CCCCC3)nc(NC(=O)c3ccc(Cl)cc3)nc2cc1OC1CCCC1 | 7.58 | 16.6 | –
41 | – | – | – | COc1cc2c(N3CCCCC3)nc(Cl)nc2cc1OCc1ccccc1 | > 100 | – | inhibition (Leishmania donovani [4]): inactive
42 | – | – | – | COc1cc2c(N3CCCCC3)nc(N(C)Cc3ccc(Cl)cc3)nc2cc1OC1CCCC1 | > 50 | 10.2 | –
43 | – | – | – | COc1cc2c(N(C)C)nc(NCc3ccc(Br)cc3)nc2cc1OC1CCNC1 (configuration not stated) | – | 3.26 | –
44 | – | – | – | COc1ccc(-c2cnc(NC(=O)c3ccc(F)cc3)n2C)cc1 | > 50 | 15 | IC50 (Leishmania donovani [13]): 1.2 µM
45 | 3.66 | 63 | 44 | COc1cc2c(N3CCCCC3)nc(NCc3ccc(C(C)(C)C)cc3)nc2cc1OC1CCCC1 | 2.63 | 4.93 | half-life [5]: 22.8 min; half-life [6]: 117 min; hepatic extraction ratio at 1 h [8]: 0.216; hepatic extraction ratio at 1 h [9]: 0.454
46 | – | – | – | COc1cc2c(N3CCCCC3)nc(Nc3ccc(Cl)cc3)nc2cc1OC1CCCC1 | 37.5 | 22.7 | –

Row | Structure (SMILES) | logD [3] | remaining at 2 h [7] [%] | remaining at 2 h [10] [%] | CC50 at 72 h [1] [µM] | IC50 (Leishmania donovani [2]) [µM] | further results
47 | O=c1c(O)c(-c2ccc(O)c(O)c2)oc2cc(O)cc(O)c12 [QUERCETIN] | 2.5 | – | – | – | – | –
48 | CC(C)[N+](C)(CCOC(=O)C1c2ccccc2Oc2ccccc21)C(C)C [PROPANTHELINE] | – | 1.2 | 37.2 | – | – | –
